# Read-outs that look alike come from different tables or passages of the source.
# Tested on: 786-O-Hif-Luc cells (luciferase gene driven by multiple HIF responsive elements)
# Experiment: Luciferase Assay
# Assay type: cell-based
# Details: 24 h, read-out: Mean Luciferease EC50
# Protocol: A pool of infected cells were then selected against 2 μg/mL of puromycin (P8833, Sigma) for 10 days followed by limited dilution to select single clones.
# Each concentration was tested in triplicate. After about 24 hours, luciferase activity was determined using ONE-Glo Luciferase Assay Reagent (E6110, Promega) following the manufacturer's recommended procedure. EC50 were calculated by using Dotmatics software.
# [1] = 786-O-Hif-Luc cells, about 24 hours
Compound,EC50 [1] [nM],EC50 [nM]
"CS(=O)(=O)c1ccc(Oc2cncc(Cl)c2)c2c1[C@H](O)C(F)(F)C2 [Compound 115, (S)-4-((5-Chloropyridin-3-yl)oxy)-2,2-difluoro-7-(methylsulfonyl)-2,3-dihydro-1H-inden-1-ol]",300,
"O=S(=O)(CF)c1ccc(Oc2cc(F)cc(F)c2)c2c1C(O)CC2 [Compound 59, (R)-4-(3,5-Difluorophenoxy)-7-((fluoromethyl)sulfonyl)-2,3-dihydro-1H-inden-1-ol]",90,
"O=Cc1c(S(=O)(=O)C(F)(F)F)ccc(Oc2cc(F)cc(Cl)c2)c1Br [Compound 101, 2-Bromo-3-(3-chloro-5-fluorophenoxy)-6-((trifluoromethyl)sulfonyl)benzaldehyde]",320,
"Cc1cc(Oc2ccc(S(=O)(=O)C(F)F)c3c2CC(F)(F)[C@H]3O)ccc1F [Compound 198, (S)-7-((Difluoromethyl)sulfonyl)-2,2-difluoro-4-(4-fluoro-3-methylphenoxy)-2,3-dihydro-1H-inden-1-ol]",290,
"CS(=N)(=O)c1ccc(Oc2cc(F)cc(F)c2)c2c1C(O)CC2 (centres unmarked) [Compound 190, (7-(3,5-Difluorophenoxy)-3-hydroxy-2,3-dihydro-1H-inden-4-yl)(imino)(methyl)-λ^6-sulfanone]",12700,
"Cc1nnc(/C=C/c2c(S(=O)(=O)C(F)(F)F)ccc(Oc3cc(F)cc(C#N)c3)c2C)o1 [Compound 151, 3-Fluoro-5-[2-methyl-3-[(E)-2-(5-methyl-1,3,4-oxadiazol-2-yl)vinyl]-4-(trifluoromethylsulfonyl)phenoxy]benzonitrile]",8900,
"CC(=O)c1c(S(=O)(=O)C(F)(F)F)ccc(Oc2cc(F)cc(Cl)c2)c1Br [Compound 104, 1-(2-Bromo-3-(3-chloro-5-fluorophenoxy)-6-((trifluoromethyl)sulfonyl)phenyl)ethan-1-one]",12100,
"N#Cc1cncc(Oc2ccc(S(=O)(=O)C(F)(F)F)c3c2CCC3O)c1 (centres unmarked) [Compound 220, 5-((1-Hydroxy-7-((trifluoromethyl)sulfonyl)-2,3-dihydro-1H-inden-4-yl)oxy)nicotinonitrile]",2100,
"N#Cc1cccc(Oc2ccc(S(=O)(=O)C(F)F)c(CO)c2Br)c1 [Compound 81, 3-(2-Bromo-4-((difluoromethyl)sulfonyl)-3-(hydroxymethyl)phenoxy)benzonitrile]",850,
"N#Cc1cccc(Oc2ccc(S(=O)(=O)C(F)F)c3c2CC[C@H]3O)c1 [Compound 156, 3-[(1R)-7-(Difluoromethylsulfonyl)-1-hydroxy-indan-4-yl]oxybenzonitrile]",,350
"CS(=O)(=O)c1ccc(Oc2cncc(C#N)c2)c2c1[C@H](O)[C@H](F)C2 [Compound 313, 5-(((1S,2R)-2-fluoro-1-hydroxy-7-(methylsulfonyl)-2,3-dihydro-1H-inden-4-yl)oxy)nicotinonitrile]",1100,
"N#Cc1cncc(Oc2ccc(S(=O)(=O)C(F)(F)F)c3c2CC(F)(F)[C@H]3O)c1 [Compound 235, (S)-5-((2,2-Difluoro-1-hydroxy-7-((trifluoromethyl)sulfonyl)-2,3-dihydro-1H-inden-4-yl)oxy)nicotinonitrile]",,15
"O=S(=O)(c1ccc(Oc2cncc(Cl)c2)c2c1[C@H](O)C(F)(F)C2)C(F)F [Compound 25, (S)-4-((5-chloropyridin-3-yl)oxy)-7-((difluoromethyl)sulfonyl)-2,2-difluoro-2,3-dihydro-1H-inden-1-ol]",18,
"O=S(=O)(c1ccc(Oc2cc(F)cc(Cl)c2)c(Br)c1CNCc1ccccc1)C(F)(F)F [Compound 110, N-Benzyl-1-(2-bromo-3-(3-chloro-5-fluorophenoxy)-6-((trifluoromethyl)sulfonyl)phenyl)methanamine]",6500,
"N#Cc1cc(F)cc(Oc2ccc(S(=O)(=O)C(F)(F)F)c3c2CC(F)(F)[C@H]3NCCO)c1 [Compound 291, 3-[(1S)-2,2-difluoro-1-(2-hydroxyethylamino)-7-(trifluoromethylsulfonyl)indan-4-yl]oxy-5-fluoro-benzonitrile]",3100,
"O=S(=O)(c1ccc(Oc2ccc(F)c3[nH]ncc23)c2c1C(O)C(F)(F)C2)C(F)(F)F (centres unmarked) [Compound 241, 2,2-Difluoro-4-((7-fluoro-1H-indazol-4-yl)oxy)-7-((trifluoromethyl)sulfonyl)-2,3-dihydro-1H-inden-1-ol]",140,
"O=S(=O)(c1ccc(Oc2cc(F)cc(Cl)c2)c(Cl)c1CNCCF)C(F)(F)F [Compound 114, N-(2-Chloro-3-(3-chloro-5-fluorophenoxy)-6-((trifluoromethyl)sulfonyl)benzyl)-2-fluoroethan-1-amine]",9000,
"O=S(=O)(c1ccc(Oc2ccc(F)c(Cl)c2)c2c1C(O)CC2)C(F)(F)F (centres unmarked) [Compound 218, 4-(3-Chloro-4-fluorophenoxy)-7-((trifluoromethyl)sulfonyl)-2,3-dihydro-1H-inden-1-ol]",3500,
"O=S(=O)(c1ccc(Oc2ccc(F)c3[nH]ncc23)c2c1[C@H](O)C(F)(F)C2)C(F)(F)F [Compound 266, (S)-2,2-difluoro-4-((7-fluoro-1H-indazol-4-yl)oxy)-7-((trifluoromethyl)sulfonyl)-2,3-dihydro-1H-inden-1-ol]",30,
"CS(=O)(=O)c1ccc(Oc2cc(F)cc(C#N)c2)c2c1[C@H](O)[C@H](F)[C@@H]2F [Compound 289, 3-[(1S,2S,3R)-2,3-difluoro-1-hydroxy-7-methylsulfonyl-indan-4-yl]oxy-5-fluoro-benzonitrile]",,4.2

# Results, then the molecule that gave them:
EC50 [1] [nM],EC50 [nM],Compound
390,,"N#Cc1c(S(=O)(=O)C(F)F)ccc(Oc2cc(F)cc(Cl)c2)c1Cl [Compound 38, 2-Chloro-3-(3-chloro-5-fluorophenoxy)-6-((difluoromethyl)sulfonyl)benzonitrile]"
,6.1,"N#Cc1cc(F)cc(Oc2ccc(S(N)(=O)=O)c3c2[C@@H](F)C(F)(F)[C@H]3O)c1 [Compound 338, (1R,3S)-7-(3-cyano-5-fluoro-phenoxy)-1,2,2-trifluoro-3-hydroxy-indane-4-sulfonamide]"
1910,,"O=S(=O)(c1ccc(Oc2cc(F)cc(F)c2)c2c1CCC2)C(F)F [Compound 20, 4-((Difluoromethyl)sulfonyl)-7-(3,5-difluorophenoxy)-2,3-dihydro-1H-indene]"
220,,"N#Cc1cc(F)cc(Oc2ccc(S(N)(=O)=O)c3c2C[C@@H](F)[C@H]3O)c1 [Compound 334, (2R,3S)-7-(3-cyano-5-fluoro-phenoxy)-2-fluoro-3-hydroxy-indane-4-sulfonamide]"
2100,,"CS(=O)(=O)c1ccc(Oc2cc(F)cc(C#N)c2)c(C#N)c1Cl [Compound 152, 2-chloro-6-(3-cyano-5-fluorophenoxy)-3-(methylsulfonyl)benzonitrile]"
> 20000,,"N#Cc1c(Oc2cc(F)cc(Cl)c2)ccc(S(=O)(=O)C(F)F)c1CO [Compound 35, 6-(3-Chloro-5-fluorophenoxy)-3-((difluoromethyl)sulfonyl)-2-(hydroxymethyl)benzonitrile]"
7600,,"N#Cc1cc(F)cc(Oc2ccc(S(=O)(=O)C(F)(F)F)c(C#N)c2Br)c1 [Compound 100, 2-Bromo-3-(3-cyano-5-fluorophenoxy)-6-((trifluoromethyl)sulfonyl)benzonitrile]"
2400,,"Cc1cc(S(=O)(=O)C(F)F)ccc1Oc1cc(F)cc(C#N)c1 [Compound 136, 3-[4-(Difluoromethylsulfonyl)-2-methyl-phenoxy]-5-fluoro-benzonitrile]"
630,,"CS(=O)(=O)c1ccc(Oc2cc(F)cc(C#N)c2)c2c1[C@H](O)C(F)(F)[C@@H]2O [Compound 312, 3-[(1S,3R)-2,2-difluoro-1,3-dihydroxy-7-methylsulfonyl-indan-4-yl]oxy-5-fluoro-benzonitrile]"
1200,,"N#Cc1cccc(Oc2ccc(S(=O)(=O)C(F)F)c(C#N)c2Cl)c1 [Compound 40, 2-Chloro-3-(3-cyanophenoxy)-6-((difluoromethyl)sulfonyl)benzonitrile]"
16,,"N#Cc1cc(F)cc(Oc2ccc(S(=O)(=O)C(F)F)c3c2CC(F)(F)C3O)c1 (centres unmarked) [Compound 11, 3-[7-(difluoromethylsulfonyl)-2,2-difluoro-1-hydroxy-indan-4-yl]oxy-5-fluoro-benzonitrile]"
1300,,"CS(=O)(=O)c1ccc(Oc2cc(F)cc(C#N)c2)c2c1[C@H](O)[C@H](F)[C@@H]2O [Compound 296, 3-fluoro-5-[(1S,2R,3R)-2-fluoro-1,3-dihydroxy-7-methylsulfonyl-indan-4-yl]oxy-benzonitrile]"
2000,,"O=S(=O)(c1ccc(Oc2cc(F)cc(Cl)c2)c(Br)c1)C(F)F [Compound 131, 2-Bromo-1-(3-chloro-5-fluorophenoxy)-4-((difluoromethyl)sulfonyl)benzene]"
5400,,"Cc1cc(S(=O)(=O)C(F)F)ccc1Oc1cc(F)cc(Cl)c1 [Compound 135, 1-(3-Chloro-5-fluoro-phenoxy)-4-(difluoromethylsulfonyl)-2-methyl-benzene]"
,35,"CS(=O)(=O)c1ccc(Oc2cc(F)cc(C#N)c2)c2c1C(O)C(F)C2 (centres unmarked) [Compound 232, 3-Fluoro-5-((2-fluoro-1-hydroxy-7-(methylsulfonyl)-2,3-dihydro-1H-inden-4-yl)oxy)benzonitrile]"
2950,,"N#Cc1cc(F)cc(Oc2ccc(S(=O)(=O)CCO)c3c2CC(F)(F)C3O)c1 (centres unmarked) [Compound 250, 3-((2,2-Difluoro-1-hydroxy-7-((2-hydroxyethyl)sulfonyl)-2,3-dihydro-1H-inden-4-yl)oxy)-5-fluorobenzonitrile]"
1800,,"CS(=O)(=O)c1ccc(Oc2cc(F)cc(C#N)c2)c2c1C(O)CC2 (centres unmarked) [Compound 222, 3-Fluoro-5-((1-hydroxy-7-(methylsulfonyl)-2,3-dihydro-1H-inden-4-yl)oxy)benzonitrile]"
2800,,"C[C@@]1(F)Cc2c(Oc3cc(F)cc(C#N)c3)ccc(S(C)(=O)=O)c2[C@@H]1O [Compound 300, 3-fluoro-5-(((1S,2R)-2-fluoro-1-hydroxy-2-methyl-7-(methylsulfonyl)-2,3-dihydro-1H-inden-4-yl)oxy)benzonitrile]"
